From ChEMBL document CHEMBL1201862, “PubChem BioAssay data set” (2004)
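How tested: cells in 96-well plates exposed to compound for 48 hours at five concentrations. GI50 = concentration required for 50% inhibition of growth.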 Active and inactive are the calls of the source. Cut-off read from the data, not from the text of the source: active = GI50 up to about 1.1 µM and inactive = higher.

How the values were obtained:
Experiment in all cases: NCI anticancer screen, dose series, 48 h
DLD-1 = system: DLD-1
TK-10 = system: TK-10
IGROV-1 = system: IGROV-1
NCI-H23 = system: NCI-H23
A549 = system: A549
HCC 2998 = system: HCC 2998
HT-29 = system: HT-29
NCI-H522 = system: NCI-H522
NCI-H460 = system: NCI-H460
SK-MEL-2 = system: SK-MEL-2
Malme-3M = system: Malme-3M
KM12 = system: KM12
MOLT-4 = system: MOLT-4
786-0 = system: 786-0
OVCAR-3 = system: OVCAR-3
SF-268 = system: SF-268
T47D = system: T47D
MDA-MB-231 = system: MDA-MB-231
MDA-MB-435 = system: MDA-MB-435
Hs-578T = system: Hs-578T

## COc1cc(C(=O)Nc2cccc3ccccc23)c(Br)c(OC)c1OC
DLD-1
  GI50: > 100 µM (inactive)
TK-10
  GI50: > 100 µM (inactive)
IGROV-1
  GI50: 81.8 µM (inactive)
NCI-H23
  GI50: 82 µM (inactive)
A549
  GI50: 66.2 µM (inactive)
HCC 2998
  GI50: > 100 µM (inactive)
HT-29
  GI50: > 100 µM (inactive)
NCI-H522
  GI50: 56.9 µM (inactive)
NCI-H460
  GI50: 64.9 µM (inactive)
SK-MEL-2
  GI50: > 100 µM (inactive)
Malme-3M
  GI50: 67.6 µM (inactive)
KM12
  GI50: 70.3 µM (inactive)
MOLT-4
  GI50: 39.7 µM (inactive)
786-0
  GI50: 1.38 µM (inactive)
OVCAR-3
  GI50: > 100 µM (inactive)
SF-268
  GI50: 97.1 µM (inactive)

## COC(=O)/C(=N\NC(N)=S)C(C(=O)OC)C(=O)C(=O)Nc1ccc(C)cc1 (configuration not stated)
DLD-1
  GI50: > 100 µM (inactive)
TK-10
  GI50: > 100 µM (inactive)
IGROV-1
  GI50: > 100 µM (inactive)
NCI-H23
  GI50: > 100 µM (inactive)
A549
  GI50: > 100 µM (inactive)
HCC 2998
  GI50: > 100 µM (inactive)
HT-29
  GI50: > 100 µM (inactive)
NCI-H522
  GI50: > 100 µM (inactive)
NCI-H460
  GI50: > 100 µM (inactive)
SK-MEL-2
  GI50: > 100 µM (inactive)
Malme-3M
  GI50: > 100 µM (inactive)
KM12
  GI50: > 100 µM (inactive)
MOLT-4
  GI50: > 100 µM (inactive)
786-0
  GI50: > 100 µM (inactive)
OVCAR-3
  GI50: > 100 µM (inactive)
SF-268
  GI50: > 100 µM (inactive)

## CC1=NN(C(=O)c2ccc(Cl)cc2)C(=O)/C1=C/c1ccc(Cl)cc1
DLD-1
  GI50: > 100 µM (inactive)
TK-10
  GI50: > 100 µM (inactive)
IGROV-1
  GI50: > 100 µM (inactive)
NCI-H23
  GI50: > 100 µM (inactive)
A549
  GI50: > 100 µM (inactive)
HCC 2998
  GI50: > 100 µM (inactive)
HT-29
  GI50: > 100 µM (inactive)
NCI-H522
  GI50: > 100 µM (inactive)
NCI-H460
  GI50: > 100 µM (inactive)
SK-MEL-2
  GI50: > 100 µM (inactive)
Malme-3M
  GI50: > 100 µM (inactive)
KM12
  GI50: > 100 µM (inactive)
MOLT-4
  GI50: > 100 µM (inactive)
786-0
  GI50: > 100 µM (inactive)
OVCAR-3
  GI50: > 100 µM (inactive)
SF-268
  GI50: > 100 µM (inactive)

## CC1=NN(C(=O)c2ccccc2O)C(=O)/C1=C/c1cccc([N+](=O)[O-])c1
DLD-1
  GI50: 0.459 µM (active)
TK-10
  GI50: 15.6 µM (inactive)
IGROV-1
  GI50: 0.384 µM (active)
T47D
  GI50: 17.3 µM (inactive)
NCI-H23
  GI50: 0.753 µM (active)
A549
  GI50: 0.448 µM (active)
HCC 2998
  GI50: 36.1 µM (inactive)
HT-29
  GI50: 38.7 µM (inactive)
NCI-H522
  GI50: 3.99 µM (inactive)
NCI-H460
  GI50: 0.658 µM (active)
MDA-MB-231
  GI50: 41.8 µM (inactive)
SK-MEL-2
  GI50: 3.1 µM (inactive)
Malme-3M
  GI50: 21.1 µM (inactive)
KM12
  GI50: 0.703 µM (active)
786-0
  GI50: 2.47 µM (inactive)
OVCAR-3
  GI50: 1.87 µM (inactive)
SF-268
  GI50: 1.25 µM (inactive)
MDA-MB-435
  GI50: 0.451 µM (active)

## CSc1nc2nc(C(O)C(O)C(O)CO)cnc2c(=O)[nH]1 (configuration not stated)
DLD-1
  GI50: > 100 µM (inactive)
TK-10
  GI50: > 100 µM (inactive)
IGROV-1
  GI50: > 100 µM (inactive)
NCI-H23
  GI50: > 100 µM (inactive)
A549
  GI50: > 100 µM (inactive)
HCC 2998
  GI50: > 100 µM (inactive)
HT-29
  GI50: > 100 µM (inactive)
NCI-H522
  GI50: > 100 µM (inactive)
NCI-H460
  GI50: > 100 µM (inactive)
SK-MEL-2
  GI50: > 100 µM (inactive)
Malme-3M
  GI50: > 100 µM (inactive)
KM12
  GI50: > 100 µM (inactive)
MOLT-4
  GI50: > 100 µM (inactive)
786-0
  GI50: > 100 µM (inactive)
OVCAR-3
  GI50: 34 µM (inactive)
SF-268
  GI50: > 100 µM (inactive)

## CC(=O)OC1CCCn2c1nc1c2C(=O)C(C)=C(N2CC2)C1=O (configuration not stated)
DLD-1
  GI50: 0.583 µM (active)
TK-10
  GI50: 2.75 µM (inactive)
IGROV-1
  GI50: 0.962 µM (active)
NCI-H23
  GI50: 0.0923 µM (active)
A549
  GI50: 0.316 µM (active)
HCC 2998
  GI50: 0.232 µM (active)
HT-29
  GI50: 0.208 µM (active)
NCI-H522
  GI50: 0.156 µM (active)
NCI-H460
  GI50: 0.0798 µM (active)
SK-MEL-2
  GI50: 0.277 µM (active)
Malme-3M
  GI50: 0.219 µM (active)
KM12
  GI50: 0.403 µM (active)
MOLT-4
  GI50: 19.4 µM (inactive)
786-0
  GI50: 0.222 µM (active)
OVCAR-3
  GI50: 0.329 µM (active)
SF-268
  GI50: 0.251 µM (active)

## C=C(C)[C@@H]1CC=C(CO)CC1 [PERILLYL ALCOHOL]
DLD-1
  GI50: 220 µM (inactive)
TK-10
  GI50: 324 µM (inactive)
IGROV-1
  GI50: 574 µM (inactive)
T47D
  GI50: > 10 µM (inactive)
NCI-H23
  GI50: 465 µM (inactive)
A549
  GI50: 126 µM (inactive)
HCC 2998
  GI50: 753 µM (inactive)
HT-29
  GI50: 136 µM (inactive)
NCI-H522
  GI50: 344 µM (inactive)
NCI-H460
  GI50: 454 µM (inactive)
MDA-MB-231
  GI50: > 10 µM (inactive)
Hs-578T
  GI50: > 10 µM (inactive)
SK-MEL-2
  GI50: 122 µM (inactive)
Malme-3M
  GI50: 324 µM (inactive)
KM12
  GI50: 316 µM (inactive)
MOLT-4
  GI50: 72.3 µM (inactive)
786-0
  GI50: 195 µM (inactive)
OVCAR-3
  GI50: 150 µM (inactive)
SF-268
  GI50: 84.1 µM (inactive)
MDA-MB-435
  GI50: > 10 µM (inactive)

## CN(C)CC1CCC(CN(C)C)C(=O)C1=O (configuration not stated)
DLD-1
  GI50: 3.05 µM (inactive)
TK-10
  GI50: 3.6 µM (inactive)
IGROV-1
  GI50: 17.6 µM (inactive)
T47D
  GI50: 2.31 µM (inactive)
NCI-H23
  GI50: 14.6 µM (inactive)
A549
  GI50: 10.9 µM (inactive)
HCC 2998
  GI50: 20.9 µM (inactive)
HT-29
  GI50: 7.64 µM (inactive)
NCI-H522
  GI50: 0.946 µM (active)
NCI-H460
  GI50: 18.8 µM (inactive)
MDA-MB-231
  GI50: 6.22 µM (inactive)
SK-MEL-2
  GI50: 19.3 µM (inactive)
Malme-3M
  GI50: 1.92 µM (inactive)
KM12
  GI50: 14.2 µM (inactive)
MOLT-4
  GI50: 2.03 µM (inactive)
786-0
  GI50: 5.14 µM (inactive)
OVCAR-3
  GI50: 2.31 µM (inactive)
SF-268
  GI50: 6.75 µM (inactive)
MDA-MB-435
  GI50: 17.8 µM (inactive)
